What was measured:
[1] = system: Wistar Han Crl:WI(Han) male rats; experiment: In vivo nephrotoxicity in rats; details: 40 mg/kg on days 1 and 8, assessed day 15
Description: Purpose bred Wistar Han Crl:WI(Han) male rats obtained from Charles River Laboratories at 7 to 8 weeks of age were divided into groups of 4 (table 1, exp. A) or 8 (table 1, exp. B) based on body weight and acclimatized for at least 5 days before dosing. The animals were housed under standard environmental conditions ([…], relative humidity 50±20%, a light/dark cycle 12 h/12 h, pelleted food and water ad libitum), were offered enriched environment in an AAALAC accredited facility and were regularly and carefully monitored. All procedures were in accordance with the respective local regulations and according to the animal permissions granted by the Institutional Animal Care and Use Committee. Test compounds were formulated in isotonic sterile saline, sterile filtered (0.22 μm), and dosed at 40 mg/kg on days 1 and 8 (2.5 ml/kg) in the intrascapular region. Control group animals received saline as vehicle control. On day 15 animals were orally administered tap water (10 ml/kg), and urine was collected on ice for 6 hours in metabolic cages. […] On day 15 the rats were sacrificed by an intraperitoneal injection of pentobarbital and exsanguinated. Kidney cortex samples were collected and fixed by immersion in 10% neutral buffered formalin, embedded in paraffin, sectioned to 5 μm and stained with hematoxylin and eosin (H&). The H&E sections were then scanned at 20× magnification using an Aperio ScanScope AT™ (Leica Biosystems) scanner and pictures were then captured via ImageScope™ software from the scanned images. One or more of the following parameters were assessed kidney weight, serum creatinine, urine protein, KIM-1 protein in urine, KIM-1 mRNA, kidney degeneration/regeneration and relative tubulotoxicity grade.

PTEC-TERT1 cells [2] = system: PTEC-TERT1 cells
Description: Prior to treatment with oligonucleotides the PTEC-TERT1 were seeded into collagen I-coated 96-well plates (Corning, 356407) at a density of 40 000 and 20 000 cells/well respectively in PTEC medium and grown until confluence.
Oligonucleotides were dissolved in PBS and added to the cell culture at the given concentration, such as 10, 30 or 100 μM. The total volume of each well was 100 μl. PBS served as vehicle control.
When extra cellular markers, like EGF and KIM-1, were analyzed following the oligonucleotide treatment the medium was collected and stored at −20° C. until further analysis. […] The collected medium was stored at −20° C.
For analysis of human KIM-1, cell supernatants were thawed on ice, diluted 1:2 and 1:10 in sample dilution buffer (BioRad catalog # M60-009RDPD) and analyzed by Luminex®-based ELISA using human KIM-1 beads (Human Kidney Injury panel 4, Millipore HKI4MAG-99K-KIM1) followed by analysis using the Bio-Plex® 200 Systems (BioRad) according to the manufacturer's instructions. Data are reported as mean concentrations and standard deviations of triplicate wells. An increase of KIM-1 levels above 200% was considered as predictive for nephrotoxicity.

PTEC-TERT1 cells [3] = system: PTEC-TERT1 cells; remark: listed apart in the source

Substance: Compound 20-1: antisense oligonucleotide comprising 2′-O-methoxyethyl-RNA (MOE) modifications, targeting sodium-glucose co-transporter 2 (SGLT2), SEQ ID NO 20 (GGCATGAGCTTC; MOE modifications, pattern not given here)
- In vivo nephrotoxicity / in vivo grade of toxicity [1]: low/medium
- predictive KIM-1 elevation (PTEC-TERT1 cells [2]): observed
- prediction of in vivo nephrotoxicity with EGF as biomarker (PTEC-TERT1 cells [3]): could be predicted

Reference: patent US11105794B2, “In vitro nephrotoxicity screening assay” (Hoffmann-La Roche Inc., priority 2016, dated 2021)
